Where “and” joins values, the source holds several entries; their conditions need not be identical. Equal values may be shown once.
Legend:
[1] = tested on: dogs with intracoronary microembolization-induced chronic HF; experiment: 3 months therapy with beta-blocker alone, beta-blocker + CCM or no therapy: LV EDV, ESV, EF; format: in vivo, dog
Method: In a set of experiments, dogs with intracoronary microembolization-induced chronic HF (LV EF 30%-40%) were randomized to 3 months therapy with either BB (beta-blockers) alone (extended release metoprolol succinate, 100 mg once daily), extended release metoprolol succinate (100 mg, once daily) combined with CCM therapy, or to no therapy at all (Control). LV end-diastolic volume (EDV), end-systolic volume (ESV) and EF were measured before randomization (PRE) and after 3 months of therapy (POST). To determine “treatment effect”, the change A between PRE and POST therapy for each group was compared among the 3 study groups.

[2] = tested on: phospholamban threonin-17; experiment: Phosphorylation of PLB at threonine-17 in failed LV tissue homogenate with/without PK inhibitor and CCM signal (Western blot); format: biochemical, dog; conditions: for P-PLB threonin-17: single samples; for P-PLB threonin-17, Av: average
Method: (§1) The tissue homogenate was prepared in the following manner. […] The homogenate was then filtered through 4 layers of cheese cloth. The resulting homogenate was stored in ice and its protein concentration was determined by the Lowry method.
(§2) The CCM signals were delivered to the homogenate as follows. The homogenate was diluted 2 fold in homogenate buffer and subsequently aliquotted 3 ml each in assay tubes. Assay tubes were divided into 2 sets (Set A and Set B), each subset consisting of […]. CCM signals were delivered for 10″, 30″, 1′, 5′, 30′, and 60′ in one of the sets, while the other set served as time control. The reaction was stopped by adding concentrated SDS. Protein assay on all the samples were performed by Lowry method.
(§3) Additional experiments of tissue homogenate were carried out in the presence and absence of protein kinese inhibitors. The homogenate was the same as above, from dogs with heart failure. […] CAS 62996-74-1.
The following tables summarize the experimental results for theronin-17: […]

[3] = tested on: human malignant glioma cell lines; conditions: advertised; cited from earlier work
[4] = tested on: platelet aggregation; conditions: advertised; cited from earlier work
[5] = tested on: phospholamban serine-16; experiment: Phosphorylation of PLB at serine-16 in failed LV tissue homogenate with/without PK inhibitor and CCM signal (Western blot); format: biochemical, dog; conditions: for P-PLB serine-16: single samples
Method: as §1, §2, §3

[6] = tested on: normal cells; conditions: advertised; cited from earlier work
[7] = Control + PK Inhibitor, no CCM, 10 sec
[8] = Control + PK Inhibitor, no CCM, 20 sec
[9] = Control + PK Inhibitor, no CCM, 30 sec
[10] = PK Inhibitor + CCM delivered for 60 sec

COCCc1ccc(OCC(O)CNC(C)C)cc1 (stereo not drawn) [BB, metoprolol succinate]
LV EDV ([1]; BB alone): prevented the increase in EDV | LV EF ([1]; BB alone): significantly increased EF | LV ESV ([1]; BB alone): significantly reduced ESV | LV EDV ([1]; BB combined with CCM): prevented the increase in EDV | LV EF ([1]; BB combined with CCM): significantly increased EF | LV ESV ([1]; BB combined with CCM): significantly reduced ESV | Treatment effect (Δ) LV EF, PRE to POST ([1]; BB combined with CCM therapy): 12±1%

CN[C@@H]1C[C@H]2O[C@@](C)([C@@H]1OC)n1c3ccccc3c3c4c(c5c6ccccc6n2c5c31)C(=O)NC4 [STAUROSPORIN]
P-PLB threonin-17 [2, 7]: 8.9 and 9.5 | P-PLB threonin-17, Av [2, 8]: 9.0 | P-PLB threonin-17 [2, 9]: 8.2 | response of threonin-17 phosphorylation to CCM in presence of kinese inhibitor ([2]; HF dog tissue homogenate): reduced and delayed response | P-PLB threonin-17 ([2]; PK Inhibitor + CCM delivered for 10 sec): 14.6 and 9.9 and 8.7 | P-PLB threonin-17 ([2]; PK Inhibitor + CCM delivered for 20 sec): 8.3 and 15.0 | P-PLB threonin-17, Av [2, 10]: 15.0 | apoptosis [3]: Induces apoptosis | platelet aggregation induced by collagen or ADP [4]: inhibits platelet aggregation | P-PLB serine-16 [5, 7]: 8.0 and 9.0 | P-PLB serine-16 [5, 8]: 12.2 and 14.0 | P-PLB serine-16, Av ([5]; Control + PK Inhibitor, no CCM, 30 sec, average): 9.4 | P-PLB serine-16 [5, 9]: 6.8 and 9.7 | response of serine-16 phosphorylation to CCM in presence of kinese inhibitor ([5]; HF dog tissue homogenate): responded close to usual | P-PLB serine-16 ([5]; PK Inhibitor + CCM delivered for 30 sec): 14.3 and 13.0 | P-PLB serine-16 [5, 10]: 22.7 | cell cycle arrest [6]: Arrests normal cells at the G1 checkpoint

From patent publication US8352031B2, “Protein activity modification” (Impulse Dynamics NV, priority 2004, dated 2013)
